Assay results reported in patent US20120004228A1, “Bis Aromatic Compounds for Use as LTC4 Synthase Inhibitors” (BIOLIPOX AB, priority 2009, published 2012).

These molecules were tested against T1, Recombinant human LTC4 synthase (Homo sapiens, UniProt Q16873) (assay: In vitro LTC4 synthase assay (LTA4 to LTC4, HTRF detection)). Settings: not given.
T1 construct: made in house; host or cells: Pichia pastoris ('Piccia pastoralis' [sic])
T1 sequence (Q16873 1-150): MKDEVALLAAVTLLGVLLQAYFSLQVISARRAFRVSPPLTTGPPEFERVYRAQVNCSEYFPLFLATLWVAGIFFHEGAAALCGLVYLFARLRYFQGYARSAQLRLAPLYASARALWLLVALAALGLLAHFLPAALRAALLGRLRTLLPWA
Assay type: biochemical
Description: In the assay, LTC4 synthase catalyses the reaction where the substrate LTA4 is converted to LTC4. Recombinant human LTC4 synthase is expressed in Piccia pastoralis and the purified enzyme is dissolved in 25 mM tris-buffer pH 7.8 supplemented with 0.1 mM glutathione (GSH) and stored at −80° C. The assay is performed in phosphate buffered saline (PBS) pH 7.4 and 5 mM GSH in 384-well plates.
The following is added chronologically to each well:
1. 48 μL LTC4 synthase in PBS with 5 mM GSH. The total protein concentration in this solution is 0.5 μg/mL. 2. 1 μL inhibitor in DMSO (final concentration 10 μM). 3. Incubation of the plate at room temperature for 10 min. 4. 1 μL LTA4 (final concentration 2.5 μM). 5. Incubation of the plate at room temperature for 5 min. 6. 10 μL of the incubation mixture is analysed using homogenous time resolved fluorescent (HTRF) detection.

Compound	IC50 [nM]
COc1ccccc1N(C(C)=O)c1cc(C(=O)O)cc(C(=O)c2ccc(N(C)c3ccc(Cl)cc3)cn2)c1 [9:24, 3-{5-[(4-Chlorophenyl)(methyl)amino]picolinoyl}-5-[N-(2-methoxyphenyl)-acetamido]benzoic acid]	932
CC(=O)N(c1cc(C(=O)O)cc(C(=O)c2ccc(N(C)c3ccc(Cl)cc3)cn2)c1)C1CCOCC1 [9:44, 3-{5-[(4-Chlorophenyl)(methyl)amino]picolinoyl}-5-[N-(4-tetrahydropyranyl)-acetamido]benzoic acid]	2550
CN(c1ccc(Cl)cc1)c1ccc(C(=O)c2cc(OCc3cccc(F)c3)cc(C(=O)O)c2)nc1 [11:4, 3-{5-[(4-Chlorophenyl)(methyl)amino]picolinoyl}-5-(3-fluorobenzyloxy)benzoic acid]	454
Cc1ccccc1CNc1cc(C(=O)O)cc(C(=O)c2ccc(N(C)c3ccc(Cl)cc3)cc2)c1 [10:16, 3-{4-[(4-Chlorophenyl)(methyl)amino]benzoyl}-5-(2-methylbenzylamino)-benzoic acid]	284
CN(c1ccc(Cl)cc1)c1ccc(C(=O)c2cc(Oc3ccc(C#N)cc3)cc(C(=O)O)c2)nc1 [8:7, 3-{5-[(4-Chlorophenyl)(methyl)amino]picolinoyl}-5-(4-cyanophenoxy)benzoic acid]	274
CN(c1ccc(Cl)cc1)c1ccc(C(=O)c2cc(C(=O)O)cc(-n3ccc4ccccc43)c2)nc1 [Example 16, 3-{5-[(4-Chlorophenyl)(methyl)aminol]picolinoyl}-5-(1-indolyl)benzoic acid]	259
CN(c1ccc(Cl)cc1)c1ccc(C(=O)c2cc(Nc3ccccc3F)cc(C(=O)O)c2)cc1 [10:9, 3-{4-[(4-Chlorophenyl)(methyl)amino]benzoyl}-5-(2-fluorophenylamino)-benzoic acid]	162
CCCCOc1ccc(S(=O)(=O)Nc2cc(C(=O)O)cc(C(=O)c3ccc(Nc4ccc(Cl)cc4)cc3)c2)cc1 [Example 7, 3-(4-Butoxybenzensulfonamido)-5-[4-(4-chlorophenylamino)benzoyl]benzoic acid]	89
CN(c1ccc(Cl)cc1)c1ccc(C(=O)c2cc(Sc3ccccc3)cc(C(=O)O)c2)nc1 [19:4, 3-{5-[(4-Chlorophenyl)(methyl)amino]picolinoyl}-5-phenylsulfanylbenzoic acid]	211
CN(c1ccc(Cl)cc1)c1ccc(C(=O)c2cc(C(=O)O)cc(C(=O)Nc3cccc(Cl)c3)c2)nc1 [2:4, 3-{5-[(4-Chlorophenyl)(methyl)amino]picolinoyl}-5-(3-chlorophenyl-carbamoyl)-benzoic acid]	390
CN(c1ccc(Cl)cc1)c1ccc(C(=O)c2cc(C(=O)O)cc(-c3ccc(Cl)cc3)c2)nc1 [12:2, 4′-Chloro-5-{5-[(4-chlorophenyl)(methyl)amino]picolinoyl}biphenyl-3-carboxylic acid]	445
COc1cccc(Nc2cc(C(=O)O)cc(C(=O)c3ccc(N(C)c4ccc(Cl)cc4)cc3)c2)c1 [Example 10:3, 3-{4-[(4-Chlorophenyl)(methyl)amino]benzoyl}-5-(3-methoxyphenylamino)-benzoic acid]	273
CN(c1ccc(Cl)cc1)c1ccc(C(=O)c2cc(Nc3ccccc3Cl)cc(C(=O)O)c2)nc1 [9:5, 3-{5-[(4-Chlorophenyl)(methyl)amino]picolinoyl}-5-(2-chlorophenylamino)-benzoic acid]	160
CN(c1ccc(Cl)cc1)c1ccc(C(=O)c2cc(Oc3ccc(C(C)(C)C)cc3)cc(C(=O)O)c2)cc1 [8:16, 3-(4-tert-Butylphenoxy)-5-{4-[(4-chlorophenyl)(methyl)amino]benzoyl}benzoic acid]	159
C=CCCC(=O)N(c1ccccc1)c1cc(C(=O)O)cc(C(=O)c2ccc(N(C)c3ccc(Cl)cc3)cc2)c1 [10:32, 3-{4-[(4-Chlorophenyl)(methyl)amino]benzoyl}-5-[(N-phenyl)pent-4-enamido]-benzoic acid]	662
CN(c1ccc(Cl)cc1)c1ccc(C(=O)c2cc(C(=O)O)cc(C(=O)Nc3ccccc3)c2)nc1 [Example 2:1, 3-{5-[(4-Chlorophenyl)(methyl)aminol]picolinoyl}-5-(phenylcarbamoyl)benzoic acid]	449

Next, values leading:

IC50 [nM]	Compound
59	CN(c1ccc(Cl)cc1)c1ccc(C(=O)c2cc(Oc3cccc(F)c3)cc(C(=O)O)c2)cc1 [8:13, 3-{4-[(4-Chlorophenyl)(methyl)amino]benzoyl}-5-(3-fluorophenoxy)benzoic acid]
70	CN(c1ccc(Cl)cc1)c1ccc(C(=O)c2cc(C(=O)O)cc(N(CCCCO)c3ccc4c(c3)OCCO4)c2)nc1 [9:35, 3-{5-[(4-Chlorophenyl)(methyl)amino]picolinoyl}-5-[(3,4-ethylenedioxyphenyl)-(4-hydroxybutyl)amino]benzoic acid]
32	CN(c1ccc(Cl)cc1)c1ccc(C(=O)c2cc(C(=O)O)cc(N(CC3CC3)c3ccccc3)c2)nc1 [Example 9:7, 3-{5-[(4-Chlorophenyl)(methyl)amino]picolinoyl}-5-[(cyclopropylmethyl)(phenyl)-amino]benzoic acid]
76	COCCN(c1cc(C(=O)O)cc(C(=O)c2ccc(N(C)c3ccc(Cl)cc3)cc2)c1)c1ccccc1F [10:25, 3-{4-[(4-Chlorophenyl)(methyl)amino]benzoyl}-5-[(2-fluorophenyl)(2-methoxy-ethyl)amino]benzoic acid]
110	CN(c1ccc(Cl)cc1)c1ccc(C(=O)c2cc(Nc3ccccc3OC(F)F)cc(C(=O)O)c2)cc1 [10:12, 3-{4-[(4-Chlorophenyl)(methyl)amino]benzoyl}-5-(2-difluoromethoxyphenyl-amino)benzoic acid]
80	CN(c1ccc(Cl)cc1)c1ccc(C(=O)c2cc(Oc3ccccc3Cl)cc(C(=O)O)c2)cc1 [8:19, 3-(2-Chlorophenoxy)-5-{4-[(4-chlorophenyl)(methyl)amino]benzoyl}benzoic acid]
109	CN(c1ccc(Cl)cc1)c1ccc(C(=O)c2cc(Oc3ccc4c(c3)OCO4)cc(C(=O)O)c2)cc1 [8:12, 5-{4-[(4-Chlorophenyl)(methyl)amino]benzoyl}-3-(3,4-methylenedioxyphenoxy)-benzoic acid]
43	C#CCN(c1ccccc1)c1cc(C(=O)O)cc(C(=O)c2ccc(N(C)c3ccc(Cl)cc3)cn2)c1 [9:8, 3-{5-[(4-Chlorophenyl)(methyl)amino]picolinoyl}-5-[phenyl(prop-2-ynyl)amino]-benzoic acid]
146	O=C(O)c1cc(Nc2ccc(Cl)cc2)cc(C(=O)c2ccc(Nc3ccc(Cl)cc3)cc2)c1 [Example 3, 3-(4-Chorophenylamino)-5-[4-(4-chlorophenylamino)benzoyl]benzoic acid]
105	CN(c1ccc(Cl)cc1)c1ccc(C(=O)c2cc(Nc3ccc4c(c3)OC(F)(F)O4)cc(C(=O)O)c2)cc1 [10:18, 3-{4-[(4-Chlorophenyl)(methyl)amino]benzoyl}-5-[3,4-(difluoromethylene-dioxy)phenylamino]benzoic acid]
60	CCOCCN(c1ccccc1)c1cc(C(=O)O)cc(C(=O)c2ccc(N(C)c3ccc(Cl)cc3)cn2)c1 [9:47, 3-{5-[(4-Chlorophenyl)(methyl)amino]picolinoyl}-5-[(2-ethoxyethyl)(phenyl)-amino]benzoic acid]

Same assay, conditions: 5 min; total concentration of title compound in the assay 10 μM

Compound	inhibition at 10 µM [%]
CCCCOc1ccc(S(=O)(=O)Nc2cc(C(=O)O)cc(C(=O)c3ccc(Nc4ccc(Cl)cc4)cc3)c2)cc1 [Example 7, 3-(4-Butoxybenzensulfonamido)-5-[4-(4-chlorophenylamino)benzoyl]benzoic acid]	98
O=C(O)c1cc(Nc2ccc(Cl)cc2)cc(C(=O)c2ccc(Nc3ccc(Cl)cc3)cc2)c1 [Example 3, 3-(4-Chorophenylamino)-5-[4-(4-chlorophenylamino)benzoyl]benzoic acid]	99
